Values of other authors in patent US12691066B2, “Dual-targeting biomimetic liposome with elemene (ELE) and cabazitaxel (CTX), and preparation method and use thereof” (HANGZHOU NORMAL UNIVERSITY, priority 2021, dated 2026).

In the case of `CO[C@H]1C(=O)[C@]2(C)[C@@H](OC)C[C@H]3OC[C@@]3(OC(C)=O)[C@H]2[C@H](OC(=O)c2ccccc2)[C@]2(O)C[C@H](OC(=O)[C@H](O)[C@@H](NC(=O)OC(C)(C)C)c3ccccc3)C(C)=C1C2(C)C` [Cabazitaxel], the solubility in ethanol is listed as “soluble” and the solubility in water is listed as “almost insoluble”.
